pIC50: −log10 of the molar value.
Experiments:
[1] = molecular target: T1, 5-hydroxytryptamine receptor 1A (Rattus norvegicus, UniProt P19327); experiment: Inhibitory activity against 5-hydroxytryptamine 1A receptor subtype
T1 sequence (P19327 whole entry): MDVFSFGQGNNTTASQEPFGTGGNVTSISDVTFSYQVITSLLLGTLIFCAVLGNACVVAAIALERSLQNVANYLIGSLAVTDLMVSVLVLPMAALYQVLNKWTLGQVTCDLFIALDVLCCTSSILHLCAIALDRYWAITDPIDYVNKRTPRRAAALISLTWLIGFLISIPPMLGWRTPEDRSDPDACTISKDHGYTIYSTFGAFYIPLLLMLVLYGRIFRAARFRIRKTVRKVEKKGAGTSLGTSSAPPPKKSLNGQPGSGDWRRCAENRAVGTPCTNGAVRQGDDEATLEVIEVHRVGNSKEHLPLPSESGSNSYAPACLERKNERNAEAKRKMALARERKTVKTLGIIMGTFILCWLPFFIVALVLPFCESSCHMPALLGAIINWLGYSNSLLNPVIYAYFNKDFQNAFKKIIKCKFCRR

[2] = molecular target: 5-hydroxytryptamine receptor 1E (Homo sapiens, UniProt P28566); experiment: Inhibitory activity against 5-hydroxytryptamine 1E receptor subtype
5-hydroxytryptamine receptor 1E, sequence (P28566 whole entry): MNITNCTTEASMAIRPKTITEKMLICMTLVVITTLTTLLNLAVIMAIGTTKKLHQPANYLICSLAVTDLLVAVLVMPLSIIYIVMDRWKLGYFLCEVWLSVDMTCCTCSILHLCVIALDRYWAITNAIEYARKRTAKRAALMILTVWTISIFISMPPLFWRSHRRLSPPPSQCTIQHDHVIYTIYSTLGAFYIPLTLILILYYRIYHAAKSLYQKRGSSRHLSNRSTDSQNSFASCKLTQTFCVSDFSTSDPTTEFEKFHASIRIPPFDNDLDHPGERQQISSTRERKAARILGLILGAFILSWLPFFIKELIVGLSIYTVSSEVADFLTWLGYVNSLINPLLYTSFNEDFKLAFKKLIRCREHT

[3] = molecular target: Sodium-dependent serotonin transporter (Rattus norvegicus, UniProt P31652); experiment: Ability to inhibit Serotonin transporter
Sodium-dependent serotonin transporter, sequence (P31652 whole entry): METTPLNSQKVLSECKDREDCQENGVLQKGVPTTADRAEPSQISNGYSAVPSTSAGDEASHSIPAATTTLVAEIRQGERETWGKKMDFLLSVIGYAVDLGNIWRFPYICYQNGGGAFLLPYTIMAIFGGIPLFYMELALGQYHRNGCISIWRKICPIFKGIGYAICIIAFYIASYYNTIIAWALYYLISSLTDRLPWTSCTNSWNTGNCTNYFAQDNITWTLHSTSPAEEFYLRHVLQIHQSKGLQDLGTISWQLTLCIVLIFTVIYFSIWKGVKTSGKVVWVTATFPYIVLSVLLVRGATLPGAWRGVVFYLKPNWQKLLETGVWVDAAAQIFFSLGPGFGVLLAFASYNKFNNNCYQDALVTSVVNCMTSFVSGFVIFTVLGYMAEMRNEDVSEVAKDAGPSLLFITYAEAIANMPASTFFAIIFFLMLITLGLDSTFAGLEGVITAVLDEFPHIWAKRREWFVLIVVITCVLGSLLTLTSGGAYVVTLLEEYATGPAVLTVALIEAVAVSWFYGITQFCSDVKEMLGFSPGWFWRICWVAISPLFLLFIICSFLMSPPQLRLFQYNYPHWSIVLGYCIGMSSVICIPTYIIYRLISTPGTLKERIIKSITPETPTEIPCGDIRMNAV

SMILES | pIC50 [1] | pIC50 [2] | pIC50 [3]
NC(=O)c1ccc2[nH]cc(C3=CCC(NCCCCCNC4CC=C(c5c[nH]c6ccc(C(N)=O)cc56)CC4)CC3)c2c1 (centres undefined) | 8.54 | < 6.00 | 7.32
NC(=O)c1ccc2[nH]cc(C3=CCC(NCCCCCCNC4CC=C(c5c[nH]c6ccc(C(N)=O)cc56)CC4)CC3)c2c1 (centres undefined) | 8.64 | < 6.00 | 7.47
NC(=O)c1ccc2[nH]cc(C3=CCC(NCCNC4CC=C(c5c[nH]c6ccc(C(N)=O)cc56)CC4)CC3)c2c1 (centres undefined) | 8.70 | < 6.00 | 7.90
NC(=O)c1ccc2[nH]cc(C3=CCC(NCCCCCCCNC4CC=C(c5c[nH]c6ccc(C(N)=O)cc56)CC4)CC3)c2c1 (centres undefined) | 8.74 | 7.00 | 7.75
NC(=O)c1ccc2[nH]cc(C3=CCC(NCCCCCCCCCCCCNC4CC=C(c5c[nH]c6ccc(C(N)=O)cc56)CC4)CC3)c2c1 (centres undefined) | 9.89 |  | 
NC(=O)c1ccc2[nH]cc(C3=CCC(NCCCCCCCCNC4CC=C(c5c[nH]c6ccc(C(N)=O)cc56)CC4)CC3)c2c1 (centres undefined) | 8.67 | 6.41 | 7.91
NC(=O)c1ccc2[nH]cc(C3=CCC(NCCCCNC4CC=C(c5c[nH]c6ccc(C(N)=O)cc56)CC4)CC3)c2c1 (centres undefined) | 7.84 | < 6.00 | 7.32
NC(=O)c1ccc2[nH]cc(C3=CCC(NCCCNC4CC=C(c5c[nH]c6ccc(C(N)=O)cc56)CC4)CC3)c2c1 (centres undefined) | 7.74 | < 6.00 | 
NC(=O)c1ccc2[nH]cc(C3=CCC(NCCCCCCCCCCNC4CC=C(c5c[nH]c6ccc(C(N)=O)cc56)CC4)CC3)c2c1 (centres undefined) | 9.66 | < 6.00 | 
CCCCCCCNC1CC=C(c2c[nH]c3ccc(C(N)=O)cc23)CC1 (centres undefined) | 8.90 |  | 
